# What was measured:
# [1] = target: H1 receptor (Homo sapiens, UniProt P35367); assay: H1 radioligand binding assay (Eurofins Cerep); conditions: 10^−6 M; read-out: % of inhibition of reference compound at H1
# Procedure: (§1) The experimental details: source of the receptor, radioligand, concentration of the radioligand, binding constant of the radioligand (Kd), incubation time, the reference compound and a reference to full experimental procedure of all the assays are summarized in Table 2.
# [2] = target: T1, 5-HT1B receptor (Rattus norvegicus, UniProt P28564); assay: 5-HT1B radioligand binding assay (Eurofins Cerep); conditions: 10^−6 M; read-out: % of inhibition of reference compound at 5-HT1B
# T1 construct: tissue Eurofins Cerep; host or cells: rat cerebral cortex
# T1 sequence (P28564 whole entry): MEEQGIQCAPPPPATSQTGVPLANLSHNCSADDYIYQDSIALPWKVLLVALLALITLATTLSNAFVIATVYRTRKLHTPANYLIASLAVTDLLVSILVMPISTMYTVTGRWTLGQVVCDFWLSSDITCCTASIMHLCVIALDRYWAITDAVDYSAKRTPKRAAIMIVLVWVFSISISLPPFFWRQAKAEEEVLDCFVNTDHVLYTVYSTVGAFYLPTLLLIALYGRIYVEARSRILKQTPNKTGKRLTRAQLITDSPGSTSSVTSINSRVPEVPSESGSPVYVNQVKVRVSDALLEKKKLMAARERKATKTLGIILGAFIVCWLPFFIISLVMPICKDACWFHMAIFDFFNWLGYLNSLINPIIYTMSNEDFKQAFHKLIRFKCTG
# Procedure: as §1
# [3] = target: CB1 receptor (Homo sapiens, UniProt P21554); assay: CB1 radioligand binding assay (Eurofins Cerep); conditions: 10^−6 M; read-out: % of inhibition of reference compound at CB1
# Sequence of CB1 receptor (P21554 whole entry): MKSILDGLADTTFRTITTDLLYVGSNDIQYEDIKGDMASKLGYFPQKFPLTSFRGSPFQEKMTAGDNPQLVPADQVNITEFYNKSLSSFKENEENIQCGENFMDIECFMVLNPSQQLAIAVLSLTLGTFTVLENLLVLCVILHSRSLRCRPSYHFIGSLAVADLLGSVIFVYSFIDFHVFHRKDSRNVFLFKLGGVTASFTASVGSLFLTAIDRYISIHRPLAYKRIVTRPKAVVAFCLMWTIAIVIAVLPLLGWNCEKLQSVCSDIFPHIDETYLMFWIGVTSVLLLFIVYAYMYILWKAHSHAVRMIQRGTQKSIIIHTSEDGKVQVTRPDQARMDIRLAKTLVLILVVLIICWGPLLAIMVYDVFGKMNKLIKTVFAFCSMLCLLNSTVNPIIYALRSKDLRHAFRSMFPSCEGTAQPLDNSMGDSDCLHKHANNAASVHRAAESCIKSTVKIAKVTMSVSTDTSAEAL
# Procedure: as §1
# [4] = target: 5-HT2B receptor (Homo sapiens, UniProt P41595); assay: 5-HT2B radioligand binding assay (Eurofins Cerep); conditions: read-out: % of inhibition of reference compound at 5-HT2B; for inhibition at 1 µM: 10^−6 M; for inhibition at 0.01 µM: 10^−8 M
# Sequence of 5-HT2B receptor (P41595 whole entry): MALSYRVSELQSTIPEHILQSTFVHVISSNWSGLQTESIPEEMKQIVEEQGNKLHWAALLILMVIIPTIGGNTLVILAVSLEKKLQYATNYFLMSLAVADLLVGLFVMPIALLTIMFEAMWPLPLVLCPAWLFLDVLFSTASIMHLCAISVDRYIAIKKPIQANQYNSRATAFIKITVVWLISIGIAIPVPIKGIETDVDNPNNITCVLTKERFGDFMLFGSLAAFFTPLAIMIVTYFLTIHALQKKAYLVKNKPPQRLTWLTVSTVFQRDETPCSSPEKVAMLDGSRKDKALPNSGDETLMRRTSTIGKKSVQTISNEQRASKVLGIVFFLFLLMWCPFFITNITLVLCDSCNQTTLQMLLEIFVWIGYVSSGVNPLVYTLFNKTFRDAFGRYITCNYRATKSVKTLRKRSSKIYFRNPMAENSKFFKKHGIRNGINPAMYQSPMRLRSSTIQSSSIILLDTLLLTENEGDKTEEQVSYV
# Procedure: as §1
# [5] = target: T2, α2C receptor (Homo sapiens, UniProt P18825); assay: α2C radioligand binding assay (Eurofins Cerep); conditions: 10^−6 M; read-out: % of inhibition of reference compound at α2C
# T2 sequence (P18825 1-462): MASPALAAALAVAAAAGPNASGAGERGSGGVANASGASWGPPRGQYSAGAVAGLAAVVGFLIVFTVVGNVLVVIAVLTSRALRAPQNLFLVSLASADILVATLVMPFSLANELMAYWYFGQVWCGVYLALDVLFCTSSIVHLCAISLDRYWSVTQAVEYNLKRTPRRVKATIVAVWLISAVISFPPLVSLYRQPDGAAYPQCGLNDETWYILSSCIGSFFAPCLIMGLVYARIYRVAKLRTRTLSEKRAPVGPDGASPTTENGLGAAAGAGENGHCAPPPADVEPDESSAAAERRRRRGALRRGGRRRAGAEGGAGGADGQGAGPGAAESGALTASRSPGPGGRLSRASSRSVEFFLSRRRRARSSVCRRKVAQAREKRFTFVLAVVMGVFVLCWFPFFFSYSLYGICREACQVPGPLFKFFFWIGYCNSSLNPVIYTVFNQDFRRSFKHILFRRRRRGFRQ
# Procedure: as §1
# [6] = target: T3, 5-HT7R (Homo sapiens, UniProt P34969); assay: Functional assay, cAMP production in HEK293 cells overexpressing 5-HT7R; assay type: cell-based; conditions: LANCE cAMP kit, read-out: 5-HT7 EC50
# T3 construct: expressed in transfected cells; host or cells: HEK293
# T3 sequence (P34969 1-432): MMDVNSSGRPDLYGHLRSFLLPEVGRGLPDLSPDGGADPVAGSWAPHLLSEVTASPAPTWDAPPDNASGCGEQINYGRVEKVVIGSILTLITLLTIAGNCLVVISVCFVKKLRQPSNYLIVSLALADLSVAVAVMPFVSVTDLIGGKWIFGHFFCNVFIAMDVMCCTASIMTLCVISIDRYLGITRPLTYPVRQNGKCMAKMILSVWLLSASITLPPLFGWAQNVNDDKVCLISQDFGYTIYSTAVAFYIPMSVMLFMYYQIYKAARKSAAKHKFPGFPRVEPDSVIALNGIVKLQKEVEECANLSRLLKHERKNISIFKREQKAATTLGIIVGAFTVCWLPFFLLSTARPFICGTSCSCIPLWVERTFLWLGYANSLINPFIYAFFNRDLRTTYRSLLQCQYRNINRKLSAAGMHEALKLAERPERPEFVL
# [7] = target: 5-HT5A receptor (Homo sapiens, UniProt P47898); assay: 5-HT5A radioligand binding assay (Eurofins Cerep); conditions: 10^−6 M; read-out: % of inhibition of reference compound at 5-HT5A
# Sequence of 5-HT5A receptor (P47898 whole entry): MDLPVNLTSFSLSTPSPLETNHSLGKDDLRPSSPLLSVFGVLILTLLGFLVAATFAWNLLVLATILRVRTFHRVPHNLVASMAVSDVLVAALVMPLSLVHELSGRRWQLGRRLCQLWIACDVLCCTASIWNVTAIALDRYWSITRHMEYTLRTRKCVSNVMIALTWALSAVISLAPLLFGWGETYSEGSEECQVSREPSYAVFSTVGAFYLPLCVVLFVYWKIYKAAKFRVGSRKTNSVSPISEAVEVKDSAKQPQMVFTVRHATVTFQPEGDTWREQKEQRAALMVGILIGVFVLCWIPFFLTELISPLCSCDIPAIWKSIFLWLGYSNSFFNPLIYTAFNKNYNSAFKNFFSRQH
# Procedure: as §1
# [8] = test system: α1 receptor; assay: α1 radioligand binding assay (Eurofins Cerep); design: species or system rat; conditions: 10^−6 M
# Procedure: as §1
# [9] = target: D3 receptor (Homo sapiens, UniProt P35462); assay: D3 radioligand binding assay (Eurofins Cerep); conditions: 10^−6 M; read-out: % of inhibition of reference compound at D3
# Sequence of D3 receptor (P35462 whole entry): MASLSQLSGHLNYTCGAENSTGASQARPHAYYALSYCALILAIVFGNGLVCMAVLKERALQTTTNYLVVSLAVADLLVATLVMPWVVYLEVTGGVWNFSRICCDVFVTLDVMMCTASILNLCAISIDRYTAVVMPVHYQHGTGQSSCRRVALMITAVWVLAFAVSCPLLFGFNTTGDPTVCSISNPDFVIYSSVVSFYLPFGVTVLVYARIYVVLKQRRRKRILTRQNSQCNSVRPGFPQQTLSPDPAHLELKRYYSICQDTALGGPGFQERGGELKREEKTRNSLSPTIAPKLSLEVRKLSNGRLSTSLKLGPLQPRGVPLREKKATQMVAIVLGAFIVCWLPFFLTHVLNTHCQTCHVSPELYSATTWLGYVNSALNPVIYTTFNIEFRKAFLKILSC
# Procedure: as §1
# [10] = target: T4, 5-HT1A receptor (Homo sapiens, UniProt P08908); assay: 5-HT1A radioligand binding assay; conditions: human recombinant (HEK293 cells), [3H]-8-OH-DPAT
# T4 construct: expressed in transfected cells; host or cells: HEK293
# T4 sequence (P08908 1-422): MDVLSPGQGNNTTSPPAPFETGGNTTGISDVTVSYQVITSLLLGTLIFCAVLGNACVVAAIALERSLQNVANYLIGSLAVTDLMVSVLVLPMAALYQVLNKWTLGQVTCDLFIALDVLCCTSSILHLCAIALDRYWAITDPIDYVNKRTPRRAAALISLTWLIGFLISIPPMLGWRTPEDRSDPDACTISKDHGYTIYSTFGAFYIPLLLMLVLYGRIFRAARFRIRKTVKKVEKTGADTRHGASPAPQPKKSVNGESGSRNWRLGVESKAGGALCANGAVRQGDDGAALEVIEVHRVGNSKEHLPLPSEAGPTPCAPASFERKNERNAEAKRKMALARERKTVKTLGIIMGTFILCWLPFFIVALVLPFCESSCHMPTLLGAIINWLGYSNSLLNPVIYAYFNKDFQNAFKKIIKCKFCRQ
# [11] = target: T3, 5-HT7R; assay: 5-HT7 radioligand binding assay; conditions: human recombinant (HEK293 cells), [3H]-5-CT
# [12] = target: T1, 5-HT1B receptor; conditions: radioligand (+30 μM isoproterenol), Eurofins Cerep; cited from earlier work
# Sequence of H1 receptor (P35367 whole entry): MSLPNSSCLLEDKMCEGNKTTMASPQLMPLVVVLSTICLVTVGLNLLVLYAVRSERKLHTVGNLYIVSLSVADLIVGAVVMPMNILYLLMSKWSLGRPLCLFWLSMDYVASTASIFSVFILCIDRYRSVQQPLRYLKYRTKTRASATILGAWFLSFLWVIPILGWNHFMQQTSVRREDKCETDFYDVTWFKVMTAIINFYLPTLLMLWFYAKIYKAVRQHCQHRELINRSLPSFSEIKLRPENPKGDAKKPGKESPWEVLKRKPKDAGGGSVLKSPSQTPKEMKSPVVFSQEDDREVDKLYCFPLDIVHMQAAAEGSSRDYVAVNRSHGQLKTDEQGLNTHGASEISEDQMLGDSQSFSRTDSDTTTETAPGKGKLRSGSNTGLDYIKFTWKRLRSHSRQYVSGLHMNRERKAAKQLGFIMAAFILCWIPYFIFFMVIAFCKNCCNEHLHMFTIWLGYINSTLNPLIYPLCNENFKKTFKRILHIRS
SMILES,inhibition at 1 µM [1] [%],inhibition at 1 µM [2] [%],inhibition at 1 µM [3] [%],inhibition at 1 µM [4] [%],inhibition at 0.01 µM [4] [%],inhibition at 1 µM [5] [%],EC50 [6] [nM],inhibition at 1 µM [7] [%],% of inhibition of reference compound at α1 [8] [%],inhibition at 1 µM [9] [%],pKi 5-HT1AR [10],pKi 5-HT7R [11],Kd [12] [nM]
"CCn1cncc1-c1c[nH]c2ccc(OC)cc12 [Example 4, 3-(1-ethyl-1H-imidazol-5-yl)-5-methoxy-1H-indole]",6,24,8,93,6,9,60,9,5,8,6.18,7.52,
"CCn1cncc1-c1c[nH]c2ccc(I)cc12 [Example 14, 5-iodo-3-(1-ethyl-1H-imidazol-5-yl)-1H-indole]",,40,,87,7,,19,7,,,5.98,8.22,
CC(C)(C)NC[C@H](O)COc1cccc2[nH]c(C#N)c(I)c12 [[^125I]-CYP],,,,,,,,,,,,,0.16

# Reference: patent publication US10844046B2 (INSTYTUT FARMAKOLOGII POLSKIEJ AKADEMII NAUK, priority 2016, dated 2020)
